Data as given in patent US9815851B2, “Pyrrolo carboxamides as modulators of orphan nuclear receptor RAR-related orphan receptor-gamma (RORγ, NR1F3) activity and for the treatment of chronic inflammatory and autoimmune diseases” (PHENEX PHARMACEUTICALS AG, priority 2011, dated 2017).
Read-outs that look alike come from different tables or passages of the source.

Tests used:
RORγ = target: T1, RORγ (UniProt P51449); test: RORγ Gal4 Reporter Gene Assay in 293T cells (firefly and renilla luciferase); type: cell-based, human
T1 sequence (P51449 1-518): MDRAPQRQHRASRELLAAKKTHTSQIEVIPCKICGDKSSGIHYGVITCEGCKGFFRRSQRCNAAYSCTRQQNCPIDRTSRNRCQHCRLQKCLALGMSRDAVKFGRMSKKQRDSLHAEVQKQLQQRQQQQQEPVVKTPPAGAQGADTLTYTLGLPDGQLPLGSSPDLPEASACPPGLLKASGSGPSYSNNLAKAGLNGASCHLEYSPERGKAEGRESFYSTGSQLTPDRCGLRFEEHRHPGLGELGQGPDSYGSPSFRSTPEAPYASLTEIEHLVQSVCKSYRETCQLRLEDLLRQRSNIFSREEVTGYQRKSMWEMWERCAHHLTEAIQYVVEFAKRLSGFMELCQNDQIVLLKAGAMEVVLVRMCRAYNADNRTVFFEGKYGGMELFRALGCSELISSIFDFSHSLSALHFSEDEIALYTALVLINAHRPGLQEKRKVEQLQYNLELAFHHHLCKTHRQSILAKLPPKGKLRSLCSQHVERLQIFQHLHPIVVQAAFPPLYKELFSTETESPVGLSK

[1] = target: T2, RORγ ligand binding domain (LBD) (Homo sapiens, UniProt P51449); test: TR-FRET Activity Assay (ligand sensing, RORγ-LBD / coactivator peptide interaction, LANCE); type: biochemical
T2 construct: made in house; host or cells: E. coli BL-21 (BL3), vector pDEST15
T2 sequence (P51449 269-508 limits assumed): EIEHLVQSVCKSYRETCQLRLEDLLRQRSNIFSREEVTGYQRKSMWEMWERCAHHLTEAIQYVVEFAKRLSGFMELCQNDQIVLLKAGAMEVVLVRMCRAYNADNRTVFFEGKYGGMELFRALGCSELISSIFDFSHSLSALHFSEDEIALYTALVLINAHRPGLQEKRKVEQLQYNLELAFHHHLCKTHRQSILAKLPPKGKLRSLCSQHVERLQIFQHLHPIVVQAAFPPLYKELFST

[2] = second value of the cell, Gal4 reporter gene assay in 293T cells, firefly luciferase
[3] = third value of the cell, Gal4 reporter gene assay in 293T cells, renilla normalised luciferase
[4] = first value of the cell FRET/FF/REN, TR-FRET activity assay, read-out: pIC50 (FRET) (converted)

| Structure (SMILES) | pIC50 (FF) (RORγ; [2]) | pIC50 (REN) (RORγ; [3]) | IC50 [1, 4] | pIC50 (FF) (RORγ) | pIC50 (REN) (RORγ) | IC50 [1] |
| --- | --- | --- | --- | --- | --- | --- |
| Cc1c(C(=O)NC2COC2)cc(-c2cc(C(C)(C)C)cc(C(C)(C)CF)c2)n1CC1CCCCC1 [17/42] |  |  |  | 5.7/7.5/7.6 | 5.7/7.5/7.6 | 2 µM |
| Cc1c(C(=O)NCC2COC2)cc(-c2cc(C(C)(C)C)cc(C(C)(C)C)c2)n1CC1CCCCC1 [17/43] | 7.4 | 7.4 | 0.2 µM |  |  |  |
| Cc1c(C(=O)NCC2(CCO)COC2)cc(-c2cc(C(C)(C)C)cc(C(C)(C)C)c2)n1CC1CCCCC1 [17/44] |  |  |  | 6.2/6.1/6.1 | 6.2/6.1/6.1 | 0.631 µM |
| Cc1c(C(=O)N2CC2CO)cc(-c2cc(C(C)(C)C)cc(C(C)(C)C)c2)n1CC1CCCCC1 (stereo not drawn) [17/45] |  |  |  | 6.0/6.5/6.4 | 6.0/6.5/6.4 | 1 µM |
| COCC1(CNC(=O)c2cc(-c3cc(C(C)(C)C)cc(C4(C)CC4)c3)n(CC3CCCCC3)c2C)COC1 [17/47] |  |  |  | 6.7/7.3/7.4 | 6.7/7.3/7.4 | 0.2 µM |
| Cc1c(C(=O)NC[C@H]2CC[C@H](C(=O)O)CC2)cc(-c2cc(C(C)(C)C)c3c(c2)C2(CCO3)CC2)n1CC1CCCCC1 [17/59] |  |  |  | 5.7/6.6/6.6 | 5.7/6.6/6.6 | 2 µM |
| Cc1c(C(=O)NCC2(C(=O)O)CCOCC2)cc(-c2cc(C(C)(C)C)cc(C3(C)CC3)c2)n1CC1CCCCC1 [17/61] | 7.4 | 7.5 | 1 µM |  |  |  |
| Cc1c(C(=O)NCC2CCOCC2)cc(-c2cc(C(C)(C)C)cc(C3(C)CC3)c2)n1CC1CCCCC1 [17/63] |  |  |  | 6.7/7.7/7.6 | 6.7/7.7/7.6 | 0.2 µM |
| Cc1c(C(=O)N[C@H]2CCOC2)cc(-c2cc(C(C)(C)C)cc(C3(C)CC3)c2)n1CC1CCCCC1 [17/65] | 7.7 | 7.7 |  |  |  | 0.2 µM |
| Cc1c(C(=O)N[C@@H]2CCOC2)cc(-c2cc(C(C)(C)C)cc(C3(C)CC3)c2)n1CC1CCCCC1 [17/66] | 7.4 | 7.4 |  |  |  | 0.158 µM |
| Cc1c(C(=O)NCC(C)(C)NS(C)(=O)=O)cc(-c2cc(C(C)(C)C)cc(C3(C)CC3)c2)n1CC1CCCCC1 [17/67] |  |  |  | 6.6/7.7/7.5 | 6.6/7.7/7.5 | 0.251 µM |
| COC(C)(C)CNC(=O)c1cc(-c2cc(C(C)(C)C)cc(C3(C)CC3)c2)n(CC2CCCCC2)c1C [17/68] |  |  |  | 6.8/7.4/7.5 | 6.8/7.4/7.5 | 0.158 µM |
| Cc1c(C(=O)NCCC(C)(C)C(N)=O)cc(-c2cc(C(C)(C)C)cc(C3(C)CC3)c2)n1CC1CCCCC1 [17/74] |  |  |  | 6.3/7.3/7.2 | 6.3/7.3/7.2 | 0.501 µM |
| Cc1c(C(=O)NC2CCOCC2)cc(-c2cc(C(=O)NC(C)(C)C)cc(C(=O)NC(C)(C)C)c2)n1CC1CCCCC1 [17/75] |  |  |  | 5.2/5.8/5.8 | 5.2/5.8/5.8 | 6.31 µM |
| Cc1c(C(=O)N(C)CC2(CO)COC2)cc(-c2cc(C(C)(C)C)cc(C3(C)CC3)c2)n1CC1CCCCC1 [17/78] |  |  |  | 6.3/7.3/7.3 | 6.3/7.3/7.3 | 0.501 µM |
| Cc1c(C(=O)NCCCCC[S+](C)[O-])cc(-c2cc(C(C)(C)C)c3c(c2)C2(CCO3)CC2)n1CC1CCCCC1 (stereo not drawn) [17/79] |  |  |  | 5.8/6.4/6.3 | 5.8/6.4/6.3 | 1.58 µM |
| Cc1c(C(=O)NCCCS(C)(=O)=O)cc(-c2cc(C(C)(C)C)c3c(c2)C2(CCO3)CC2)n1CC1CCCCC1 [17/80] | 6.9 | 7.0 | 0.501 µM |  |  |  |
| Cc1c(C(=O)NCC2(O)CCS(=O)(=O)CC2)cc(-c2cc(C(C)(C)C)c3c(c2)C2(CCO3)CC2)n1CC1CCCCC1 [17/81] |  |  |  | 6.2/7.1/7.1 | 6.2/7.1/7.1 | 0.631 µM |

Second part, led by results:

| pIC50 (FF) (RORγ; [2]) | pIC50 (REN) (RORγ; [3]) | IC50 [1, 4] | Structure (SMILES) | pIC50 (FF) (RORγ) | pIC50 (REN) (RORγ) | IC50 [1] |
| --- | --- | --- | --- | --- | --- | --- |
| 6.5/6.5/6.5 | 6.5/6.5/6.5 | 0.316 µM | COC(=O)CC1(NC(=O)c2cc(-c3cc(C(C)(C)C)cc(C(C)(C)C)c3)n(CC3CCCCC3)c2C)COC1 [17/46] |  |  |  |
| 7.6 | 7.5 | 1 µM | Cc1c(C(=O)NCC2(O)CCOCC2)cc(-c2cc(C(C)(C)C)c3c(c2)C(C)(C)C(=O)N3C)n1CC1CCCCC1 [17/48] |  |  |  |
| 7.0 | 7.1 | 2 µM | Cc1c(C(=O)NCC(C)(C)C(=O)O)cc(-c2cc(C(C)(C)C)c3c(c2)C(C)(C)C(=O)N3C)n1CC1CCCCC1 [17/49] |  |  |  |
| 6.7 | 6.7 | 1.58 µM | Cc1c(C(=O)NCC2(C(=O)O)CC2)cc(-c2cc(C(C)(C)C)c3c(c2)C2(CCO3)CC2)n1CC1CCCCC1 [17/51] |  |  |  |
| 6.7 | 6.7 | 1.58 µM | Cc1c(C(=O)N2CC(C(=O)O)C2)cc(-c2cc(C(C)(C)C)c3c(c2)C2(CCO3)CC2)n1CC1CCCCC1 [17/52] |  |  |  |
| 6.9 | 6.9 | 1.58 µM | Cc1c(C(=O)N2CCC(C(=O)O)CC2)cc(-c2cc(C(C)(C)C)c3c(c2)C2(CCO3)CC2)n1CC1CCCCC1 [17/53] |  |  |  |
| 7.1 | 7.2 | 1.58 µM | Cc1c(C(=O)N2CCC(C)(C(=O)O)CC2)cc(-c2cc(C(C)(C)C)c3c(c2)C2(CCO3)CC2)n1CC1CCCCC1 [17/54] |  |  |  |
| 7.5 | 7.6 | 2 µM | Cc1c(C(=O)N[C@H]2C[C@H](C(=O)O)C2)cc(-c2cc(C(C)(C)C)c3c(c2)C2(CCO3)CC2)n1CC1CCCCC1 [17/55] |  |  |  |
| 6.4 | 6.4 | 12.6 µM | Cc1c(C(=O)N[C@H]2C[C@@H](C(=O)O)C2)cc(-c2cc(C(C)(C)C)c3c(c2)C2(CCO3)CC2)n1CC1CCCCC1 [17/56] |  |  |  |
| 7.4 | 7.5 | 0.794 µM | Cc1c(C(=O)N[C@H]2CC[C@H](C(=O)O)CC2)cc(-c2cc(C(C)(C)C)c3c(c2)C2(CCO3)CC2)n1CC1CCCCC1 [17/57] |  |  |  |
| 6.7 | 6.7 | 1.58 µM | Cc1c(C(=O)N[C@H]2CC[C@@H](C(=O)O)CC2)cc(-c2cc(C(C)(C)C)c3c(c2)C2(CCO3)CC2)n1CC1CCCCC1 [17/58] |  |  |  |
| 7.6 | 7.6 | 1.58 µM | Cc1c(C(=O)NCC(C)(C)C(=O)O)cc(-c2cc(C(C)(C)C)cc(C3(C)CC3)c2)n1CC1CCCCC1 [17/60] |  |  |  |
| 8.3 | 8.3 | 0.316 µM | Cc1c(C(=O)NCC2(C(N)=O)CCOCC2)cc(-c2cc(C(C)(C)C)cc(C3(C)CC3)c2)n1CC1CCCCC1 [17/62] |  |  |  |
| 7.8 | 7.7 | 0.316 µM | Cc1c(C(=O)NCC2(O)CCOCC2)cc(-c2cc(C(C)(C)C)cc(C3(C)CC3)c2)n1CC1CCCCC1 [17/64] |  |  |  |
| 7.2 | 7.4 | > 20 µM | Cc1c(C(=O)NC2CCOCC2)cc(-c2ccc(S(=O)(=O)N3CCCCC3(C)C)c(C(F)(F)F)c2)n1CC1CCCCC1 [17/69] |  |  |  |
| 7.9 | 7.9 | 1.26 µM | Cc1c(C(=O)NCCc2nnn[nH]2)cc(-c2cc(C(C)(C)C)cc(C3(C)CC3)c2)n1CC1CCCCC1 [17/70] |  |  |  |
| 6.9 | 6.8 | 1.58 µM | Cc1c(C(=O)NCc2nnn[nH]2)cc(-c2cc(C(C)(C)C)cc(C3(C)CC3)c2)n1CC1CCCCC1 [17/71] |  |  |  |
| 7.2 | 7.3 | 1 µM | Cc1c(C(=O)NCCC(C)(C)C(=O)O)cc(-c2cc(C(C)(C)C)cc(C3(C)CC3)c2)n1CC1CCCCC1 [17/73] |  |  |  |
| 6.9 | 6.9 | 2 µM | Cc1c(C(=O)NCC(C)(C)O)cc(-c2cccc3c(S(=O)(=O)NC(C)(C)C)cccc23)n1CC1CCCCC1 [17/76] |  |  |  |
| 8.0 | 8.1 | 0.794 µM | Cc1c(C(=O)NCC(C)(C)c2nn[nH]n2)cc(-c2cc(C(C)(C)C)cc(C3(C)CC3)c2)n1CC1CCCCC1 [17/77] |  |  |  |
| 6.7 | 6.7 | 0.794 µM | Cc1c(-c2cc(C(=O)NCC(C)(C)O)c(C)n2CC2CCCCC2)nc(C2(C)CC2)nc1C(C)(C)C [17/82] |  |  |  |
| 8.2 | 8.3 | 0.126 µM | CCC(C)(C)NS(=O)(=O)c1ccc(-c2cc(C(=O)NC3CCOCC3)c(C)n2CC2CCCCC2)cc1C(F)(F)F [17/83] |  |  |  |
| 7.2 | 7.2 | > 20 µM | Cc1c(C(=O)NC2CCOCC2)cc(-c2ccc(S(=O)(=O)N3CCCC3(C)C)c(C(F)(F)F)c2)n1CC1CCCCC1 [17/84] |  |  |  |
